Results taken from patent publication US6900219B2, “ABCA-1 elevating compounds” (CV Therapeutics, Inc., priority 2002, dated 2005).

tested on: ABCA-1 gene; test: compounds tested and found to elevate cellular expression of the ABCA-1 gene (Examples 1-6; test not named); assay type: cell-based
Description: Activity testing is conducted as described in those patents and patent applications referenced above, and in the Examples below, and by methods apparent to one skilled in the art.

Row | Compound | cellular expression of the ABCA-1 gene
1 | CCn1c2ccccc2c2cc(CN(CCc3ccccc3)C(=O)c3ccc4c(c3)OCO4)ccc21 [2H-benzo[d]1,3-dioxolen-5-yl-N-[(9-ethylcarbazol-3-yl)methyl]-N-(2-phenylethyl)carboxamide] | elevate cellular expression of the ABCA-1 gene
2 | CCCn1c(C(CC)N(Cc2ccccc2)C(=O)CC(C)CC(C)(C)C)nc2ccccc2c1=O (stereo not shown) [3,5,5-trimethylhexanoic acid benzyl-[1-(4-oxo-3-propyl-3,4-dihydro-quinazolin-2-yl)propyl]-amide] | elevate cellular expression of the ABCA-1 gene
3 | CCCN(C(=O)Nc1ccc(Br)cc1)C(C)c1nc2cc(Cl)ccc2c(=O)n1-c1ccc(C)cc1 (stereo not shown) [3-(4-bromo-phenyl)-1-[1-(7-chloro-4-oxo-3-p-tolyl-3,4-dihydro-quinazolin-2-yl)-ethyl]-1-propyl-urea] | elevate cellular expression of the ABCA-1 gene
4 | Clc1ccc(-c2cc(-c3ccccc3)[nH]n2)cc1 [3-(4-chlorophenyl)-5-phenylpyrazole] | elevate cellular expression of the ABCA-1 gene
5 | Fc1cccc(CSc2ncc3ccccn23)c1 [3-[(3-fluorophenyl)methylthio]-4-hydroimidazolo[1,5-a]pyridine] | elevate cellular expression of the ABCA-1 gene
6 | Cc1ccc(-c2ccc3c(N)c(C#N)sc3n2)cc1 [3-amino-6-(4-methylphenyl)thiopheno[2,3-b]pyridine-2-carbonitrile] | elevate cellular expression of the ABCA-1 gene
7 | O=C(CCC1CCCC1)Nc1ccc2c(c1)CCC2 [3-cyclopentyl-N-indan-5-ylpropanamide] | elevate cellular expression of the ABCA-1 gene
8 | O=[N+]([O-])c1ccc(COc2ccc(C3SCCS3)cc2)cc1 [4-(1,3-dithiolan-2-yl)-1-[(4-nitrophenyl)methoxy]benzene] | elevate cellular expression of the ABCA-1 gene
9 | Cc1ccc(-n2ncc(N(C)n3cccc3)c(Cl)c2=O)cc1 [4-chloro-2-(4-methylphenyl)-5-(methylpyrrolylamino)-2-hydropyridazin-3-one] | elevate cellular expression of the ABCA-1 gene
10 | O=C(Nc1nccs1)c1ccc(C(F)(F)F)cc1 [4-trifluoromethylphenyl-N-(1,3-thiazol-2-yl)carboxamide] | elevate cellular expression of the ABCA-1 gene
11 | CCOc1ccc(-n2c(C(C)N3CCN(C(=O)Nc4ccc(OC)cc4OC)CC3)nc3ccccc3c2=O)cc1 (stereo not shown) [4-{1-[3-(4-ethoxyphenyl)-4-oxo-3,4-dihydro-quinazolin-2-yl]-ethyl}-piperazine-1-carboxylic acid (2,4-dimethoxy-phenyl)-amide] | elevate cellular expression of the ABCA-1 gene
12 | CCCOc1nc(-c2ccc(Cl)cc2Cl)n(S(=O)(=O)Cc2ccccc2)n1 [5-(2,4-dichlorophenyl)-1-[benzylsulfonyl]-3-propoxy-1,2,4-triazole] | elevate cellular expression of the ABCA-1 gene
13 | Cc1ccc(-c2ncc(-c3ccc(Cl)cc3)o2)cc1 [5-(4-chlorophenyl)-2-(4-methylphenyl)-1,3-oxazole] | elevate cellular expression of the ABCA-1 gene
14 | CCc1c(C(=O)NCc2ccco2)cnn1-c1nc(-c2ccc(C)cc2)cs1 [5-ethyl-1-(4-p-tolyl-thiazol-2-yl)-1H-pyrazole-4-carboxylic acid (furan-2-ylmethyl)-amide] | elevate cellular expression of the ABCA-1 gene
15 | CCc1c(C(=O)NCc2ccco2)cnn1-c1nc(-c2ccc(OC)cc2)cs1 [5-ethyl-1-[4-(4-methoxy-phenyl)-thiazol-2-yl]-1H-pyrazole-4-carboxylic acid (furan-2-ylmethyl)-amide] | elevate cellular expression of the ABCA-1 gene
16 | Cc1ccc(-c2csc(-n3ncc(C(=O)NC(C)c4ccccc4)c3C(C)C)n2)cc1 (stereo not shown) [5-isopropyl-1-(4-p-tolyl-thiazol-2-yl)-1H-pyrazole-4-carboxylic acid (1-phenyl-ethyl)-amide] | elevate cellular expression of the ABCA-1 gene
17 | Cc1ccc(-c2csc(-n3ncc(C(=O)NCCC(C)C)c3C(C)C)n2)cc1 [5-isopropyl-1-(4-p-tolyl-thiazol-2-yl)-1H-pyrazole-4-carboxylic acid (3-methyl-butyl)-amide] | elevate cellular expression of the ABCA-1 gene
18 | Cc1ccc(-c2csc(-n3ncc(C(=O)NC4CC4)c3C(C)C)n2)cc1 [5-isopropyl-1-(4-p-tolyl-thiazol-2-yl)-1H-pyrazole-4-carboxylic acid cyclopropylamide] | elevate cellular expression of the ABCA-1 gene
19 | Cc1ccc(-c2csc(-n3ncc(C(=O)NCCc4ccccc4)c3C)n2)cc1 [5-methyl-1-(4-p-tolyl-thiazol-2-yl)-1H-pyrazole-4-carboxylic acid phenethyl-amide] | elevate cellular expression of the ABCA-1 gene
20 | O=[N+]([O-])c1ccc(-c2cnc3ccc(Cl)cn23)cc1 [6-chloro-3-(4-nitrophenyl)-4-hydroimidazolo[1,2-a]pyridine] | elevate cellular expression of the ABCA-1 gene

Row | Compound | cellular expression of the ABCA-1 gene
21 | Cc1ccc2nc3c(nc2c1)-c1ccccc1C3=O [7-methylindeno[2,3-b]quinoxalin-1′-one] | elevate cellular expression of the ABCA-1 gene
22 | CSC(N)=N/N=C/c1ccc(Cl)cc1 [(1 Z,3E)-2,3-diaza-4-(4-chlorophenyl)-1-methylthiobuta-1,3-dienylamine] | elevate cellular expression of the ABCA-1 gene
23 | COc1ccc(C(=O)O/N=C(/N)c2cccnc2)cc1 [(1E)-2-amino-1-aza-2-(3-pyridyl)vinyl 4-methoxybenzoate] | elevate cellular expression of the ABCA-1 gene
24 | COc1ccc(/C(N)=N\OC(=O)c2ccccc2OC)cc1 [(1E)-2-amino-1-aza-2-(4-methoxyphenyl)vinyl 2-methoxybenzoate] | elevate cellular expression of the ABCA-1 gene
25 | O=C(Nc1nc2c(Cl)cccc2s1)c1ccc2c(c1)OC(F)(F)O2 [(2,2-difluorobenzo[3,4-d]1,3-dioxolen-5-yl)-N-(4-chlorobenzothiazol-2-yl)carboxamide] | elevate cellular expression of the ABCA-1 gene
26 | O=C(NC1=NCCS1)c1ccc(Cl)cc1Cl [(2,4-dichlorophenyl)-N-(1,3-thiazolin-2-yl)carboxamide] | elevate cellular expression of the ABCA-1 gene
27 | O=C(Nc1nc(-c2ccc3ccccc3c2)cs1)c1ccc(F)cc1F [(2,4-difluorophenyl)-N-(4-(2-naphthyl)(1,3-thiazol-2-yl))carboxamide] | elevate cellular expression of the ABCA-1 gene
28 | O=C(Nc1ncc(-c2ccccc2)s1)c1ccc(F)cc1F [(2,4-difluorophenyl)-N-(5-phenyl(1,3-thiazol-2-yl)) carboxamide] | elevate cellular expression of the ABCA-1 gene
29 | O=C(Nc1nc(-c2ccc(Cl)cc2)cs1)c1ccc(F)cc1F [(2,4-difluorophenyl)-N-[4-(4-chlorophenyl)(1,3-thiazol-2-yl)]carboxamide] | elevate cellular expression of the ABCA-1 gene
30 | Cc1cc(C(=O)Nc2ncc(-c3ccccc3)s2)c(C)o1 [(2,5-dimethyl(3-furyl))—N-(5-phenyl(1,3-thiazol-2-yl))carboxamide] | elevate cellular expression of the ABCA-1 gene
31 | Nc1ccccc1C(=O)Nc1ccc(Cl)cc1 [(2-aminophenyl)-N-(4-chlorophenyl)carboxamide] | elevate cellular expression of the ABCA-1 gene
32 | Cc1ccc(NC(=O)c2ccccc2N)cc1 [(2-aminophenyl)-N-(4-methylphenyl)carboxamide] | elevate cellular expression of the ABCA-1 gene
33 | O=C(NCCc1ccccn1)c1ccc([N+](=O)[O-])cc1Cl [(2-chloro-4-nitrophenyl)-N-(2-(2-pyridyl)ethyl)carboxamide] | elevate cellular expression of the ABCA-1 gene
34 | O=C(NCCc1ccccn1)c1ccccc1Cl [(2-chlorophenyl)-N-(2-(2-pyridyl)ethyl)carboxamide] | elevate cellular expression of the ABCA-1 gene
35 | O=C(Nc1ccc(Cl)cc1)c1ccccc1Cl [(2-chlorophenyl)-N-(4-chlorophenyl)carboxamide] | elevate cellular expression of the ABCA-1 gene
36 | O=C(NNC(=S)Nc1ccccc1Cl)c1ccccc1Cl [(2-chlorophenyl)-N-({[(2-chlorophenyl)amino]thioxomethyl}amino)carboxamide] | elevate cellular expression of the ABCA-1 gene
37 | O=C(NC1=NCCS1)c1ccccc1F [(2-fluorophenyl)-N-(1,3-thiazolin-2-yl)carboxamide] | elevate cellular expression of the ABCA-1 gene
38 | Cc1ccc2cc(NC(=O)c3ccccc3F)ccc2n1 [(2-fluorophenyl)-N-(2-methyl(6-quinolyl))carboxamide] | elevate cellular expression of the ABCA-1 gene
39 | O=C1CSC(NC(=O)c2ccccc2C(F)(F)F)=N1 [(2-trifluoromethylphenyl)-N-(4-oxo(1,3-thiazolin-2-yl))carboxamide] | elevate cellular expression of the ABCA-1 gene
40 | CCN(CCCN(CC)c1nc2cc(C(=O)Nc3ccc(OC)cc3)ccc2o1)C(=O)c1ccoc1 [(2-{ethyl[3-(N-ethyl-3-furylcarbonylamino)propyl]amino}benzoxazol-5-yl)-N-(4-methoxyphenyl)carboxamide] | elevate cellular expression of the ABCA-1 gene
